These results are taken from ChEMBL document CHEMBL5113376, “Antimalarial application of quinones: A recent update” (Eur J Med Chem, 2021).

Structures are written as SMILES. Values after ≈ are worked out from the molar mass of the structure shown.

The IC50 is the concentration at which inhibition is half-maximal. One may read the CC50 as the concentration that lowers cell viability or growth by half.

In data set [1] the test system is Plasmodium falciparum. The experiment in a line: Antiplasmodial activity against Chloroquine resistant plasmodium falciparum FCR-3. Format: functional, organism-based.
Data set [2] can be described thus: Selectivity index, ratio of IC50 for human MDA-MB-231 cells to IC50 for Chloroquine resistant Plasmodium falciparum FCR-3. Format: toxicity. Particulars: read-out: Ratio IC50.
Data set [3] deals with Plasmodium falciparum. Kind of data set: Antimalarial activity against Chloroquine resistant blood stage Plasmodium falciparum clone W2. Format: functional, organism-based.
For data set [4], the system named is Plasmodium berghei. The experiment in a line: In vivo antiplasmodial activity against Plasmodium berghei infected in Swiss mouse assessed as reduction of parasitaemia at 100 mg/kg, po for 3 days. Format: functional. The arrangement: scale not given: the % may be the effect or the level left. The settings on record: time 3 day.
Data set [5] relates to Plasmodium falciparum. Kind of data set: Antimalarial activity against Plasmodium falciparum Dd2 by SYBR green method. Format: functional, organism-based.
Data set [6] deals with Plasmodium falciparum. The experiment in a line: Potency index, ratio of chloroquine IC50 to compound IC50 for antimalarial activity against Plasmodium falciparum Dd2. Format: functional.
For data set [7], the system named is Plasmodium berghei. The experiment in a line: In vivo antiplasmodial activity against Plasmodium berghei ANKA infected in CD-1 mouse assessed as decrease in parasitaemia at 50 mg/kg, ip measured after 4 days relative to control. Format: functional. On the set-up: scale not given: the % may be the effect or the level left. Particulars: time 4 day.
The test system of data set [8] is Plasmodium berghei. The experiment in a line: In vivo antiplasmodial activity against Plasmodium berghei ANKA infected in CD-1 mouse assessed as decrease in parasitaemia at 50 mg/kg, ip measured after 7 days relative to control. Format: functional. The arrangement: scale not given: the % may be the effect or the level left. The settings on record: time 7 day.
For the next data set, the system named is HepG2. Kind of data set: Cytotoxicity against human HepG2 cells incubated for 24 hrs by MTT assay. Format: functional. Background: Tetrazolium dyes change colour on reduction, which living cells bring about.
For another data set, the system named is A549. The experiment in a line: Cytotoxicity against human A549 cells incubated for 24 hrs by MTT assay. Format: functional.
Data set [9] can be described thus: Cytotoxicity against […] LLC-PK1 cells incubated for 24 hrs by MTT assay. Format: toxicity, cell-based, Sus scrofa. Particulars: pig.
A short description of data set [10]: Cytotoxicity against human MRC5 cells incubated for 24 hrs by MTT assay. Format: toxicity, cell-based.
In data set [11] the test system is Plasmodium falciparum. Kind of data set: Antimalarial activity against Plasmodium falciparum W2 incubated for 24 hrs. Format: functional, organism-based. Particulars: Plasmodium falciparum, W2, 24 h.
Data set [12] is described as follows: Cytotoxicity against African green monkey Vero cells. Format: toxicity, cell-based. The settings on record: chlorocebus sabaeus.
Data set [13] concerns Plasmodium falciparum. The experiment in a line: Antiplasmodial activity against Plasmodium falciparum 3D7 infected in human erythrocytes assessed as growth inhibition. Format: functional, organism-based. Particulars: 3D7, Erythrocyte.
In data set [14] the test system is Plasmodium falciparum. Kind of data set: Antimalarial activity against chloroquine resistant Plasmodium falciparum K1 incubated for 72 hrs by SYBR green staining based fluorescence reader method. Format: functional, organism-based. Particulars: K1, 72 h.
Data set [15] can be described thus: Selectivity index, ratio of CC50 for african green monkey Vero cells to IC50 for Chloroquine resistant Plasmodium falciparum K1. Format: toxicity. The settings on record: read-out: Ratio CC50/IC50.
The subject of data set [16] is Plasmodium falciparum. Kind of data set: Antimalarial activity against chloroquine […] Plasmodium falciparum 3D7 incubated for 72 hrs by SYBR green staining based fluorescence reader method. Format: functional, organism-based. The settings on record: 3D7, 72 h.
In data set [17] the test system is Plasmodium falciparum. The experiment in a line: Antimalarial activity against Plasmodium falciparum D6. Format: functional, organism-based.
Data set [18] has as its system Plasmodium falciparum. Kind of data set: Antimalarial activity against Plasmodium falciparum W2. Format: functional, organism-based.
The subject of data set [19] is Plasmodium falciparum. The experiment in a line: Antimalarial activity against Plasmodium falciparum TM91C235. Format: functional, organism-based.
For data set [20], the system named is Plasmodium falciparum. The experiment in a line: Antimalarial activity against Plasmodium falciparum TM90C2B (2007). Format: functional, organism-based.
For data set [21], the system named is Plasmodium falciparum. The experiment in a line: Antimalarial activity against Plasmodium falciparum TM90C2B (1995). Format: functional, organism-based.
Data set [22] deals with Plasmodium berghei. Kind of data set: Antimalarial activity against Plasmodium berghei. Format: functional, organism-based.
Data set [23] has as its system Plasmodium falciparum. The experiment in a line: Antimalarial activity against Plasmodium falciparum. Format: functional, organism-based.
Data set [24] has as its system Plasmodium falciparum. Kind of data set: In vivo antimalarial activity against Plasmodium falciparum 3D70087/N9 infected in humanized mouse model assessed as reduction in parasitemia administered orally for 4 days measured on day 7 relative to control. Particulars: route po; time 7 day. Format: functional. On the set-up: scale not given: the % may be the effect or the level left.

For data set [25], the system named is Plasmodium falciparum. Kind of data set: Antimalarial activity against Plasmodium falciparum W2 by 96-well microtitre plate method based scintillation counting analysis. Format: functional, organism-based.
The test system of data set [26] is Plasmodium falciparum. The experiment in a line: Antimalarial activity against chloroquine sensitive Plasmodium falciparum RKL-2. Format: functional, organism-based.
Data set [27] relates to Plasmodium falciparum. The experiment in a line: Antimalarial activity against chloroquine resistant Plasmodium falciparum RKL-9. Format: functional, organism-based.
Data set [28] has as its system Plasmodium falciparum. Kind of data set: Antimalarial activity against Plasmodium falciparum 3D7 infected in human erythrocytes. Particulars: 3D7, Erythrocyte. Format: functional, organism-based.
The subject of another data set is HEK293. The experiment in a line: Cytotoxicity against HEK293 cells incubated for 48 hrs by MTT assay. Format: functional. Particulars: Homo sapiens.
Data set [29] relates to Plasmodium falciparum. Kind of data set: Antiplasmodial activity against Chloroquine resistant Plasmodium falciparum FcB1 incubated for 48 hrs by SYBR green I based fluorescence assay. Particulars: FcB1, 48 h. Format: functional, organism-based.
For data set [30], the system named is Plasmodium berghei. Kind of data set: In vivo plasmodial activity against Plasmodium berghei ANKA infected in Swiss mouse assessed as survival rate at 50 mg/kg, ip for 4 days after infection relative to control. Format: functional. The settings on record: time 4 day.

In the case of `CC(C)=CCC/C(=C/CC/C(C)=C/CCc1ccc2c(c1)C(=O)C=C(C)C2=O)C(=O)O`, the IC50 in the data set on Plasmodium falciparum [1] came to 5.4 µM. In addition, in data set [2], the selectivity ratio is 443.

The molecule `O=C1C(O)=C(CN2CC3CCC2CC3)C(=O)c2ccccc21` gave an IC50 in the data set with Plasmodium falciparum [3] of 1.3 µM. Further, the Activity entry in the data set on Plasmodium berghei [4] was “<=63%”.

Molecule `CC1=C(Cc2ccc(NC(=O)OC(C)(C)C)cc2)C(=O)c2ccccc2C1=O` yielded an IC50 in the data set on Plasmodium falciparum [5] of 0.042 µM. In addition, the “Ratio IC50” value with Plasmodium falciparum [6] was determined as 3. Also, the Activity is listed as 75.5% in the data set with Plasmodium berghei [7] and 81.8% with Plasmodium berghei [8].

With `CC1(C)CCC2=C(O1)C(=O)c1ccccc1C2=O` [ALPHA-LAPACHONE], the CC50 with HepG2 and in the data set on A549 was 2.09 µM each time. The CC50 at 24 h in [9] and in data set [10] was 2.09 µM each time. It took 15.8 µM to reach half-maximal inhibition in the data set on Plasmodium falciparum [11] (IC50).

In the case of `CCN(CC)CCCC(C)Nc1ccnc2cc(Cl)ccc12` (stereo not given) [CHLOROQUINE], in [12], the CC50 amounted to 227 µM. Besides, the Activity in the data set with Plasmodium berghei [7] worked out at 86.3%; with Plasmodium berghei [8] it was 76.8%.

`COC1=C2C[C@@H](C)C[C@H](OC)[C@H](O)[C@@H](C)/C=C(\C)[C@H](OC(N)=O)[C@@H](OC)/C=C\C=C(/C)C(=O)NC(=CC1=O)C2=O` [GELDANAMYCIN]: the IC50 with Plasmodium falciparum [13] came to 0.02 µM.

In the case of `Cc1cc(O)c2c(c1)C(=O)c1cc(O)c(CN3CCCCC3)c(O)c1C2=O`, the figures for the IC50 in the data set with Plasmodium falciparum [14] and with Plasmodium falciparum [16] were 2.28 µM and 2.74 µM, respectively. For the same molecule, the CC50 in data set [12] stood at 782 µM. Also, the selectivity ratio in data set [15] was determined as 315.

Take `CCCCCC[C@H](C)CC1=C(O)C(=O)c2c(C)cccc2C1=O`: the IC50 in the data set on Plasmodium falciparum [17] worked out at 0.073 µM; with Plasmodium falciparum [18], 0.191 µM; in the data set on Plasmodium falciparum [19], 0.229 µM; in the data set on Plasmodium falciparum [20] it was 0.193 µM; in the data set with Plasmodium falciparum [21] it was 0.234 µM; in the data set with Plasmodium berghei [22] it was 0.246 µM.

On to `COC(=O)/C(=C\CC/C(C)=C/CC/C(C)=C/CC1=CC(=O)C=C(C)C1=O)CCC=C(C)C`, for which the IC50 with Plasmodium falciparum [1] is 8.2 µM.

In turn, `Cc1oc2c(c1C(=O)NC(CCC(N)=O)C(=O)O)C(=O)c1ccccc1C2=O` (stereo not given) registered an IC50 with Plasmodium falciparum [23] of 2 µM.

As for `CCCN(CCC)CC1=C(O)C(=O)c2ccccc2C1=O`, in the data set on Plasmodium falciparum [3], the IC50 came out at 1.9 µM. In addition, the Activity result in the data set with Plasmodium berghei [4] was “<=63%”.

Turning to `Cc1n(C(C)C)c2c([n+]1C(C)C)C(=O)c1ccccc1C2=O.[Br-]`, in the data set with Plasmodium falciparum [24], the Activity stood at 90%.

Turning to `C=C(C)C1CC2=C(O1)C(=O)c1ccccc1C2=O` (stereo not drawn) [DEHYDROISO-ALPHA-LAPACHONE], the IC50 with Plasmodium falciparum [25] turned out to be 7.53 µg/mL (≈ 31.3 µM).

For `CNCCCCNCCCNC(=O)c1c(C)oc2c1C(=O)c1ccccc1C2=O`, the IC50 in the data set with Plasmodium falciparum [23] came out at 0.05 µM.

As for `O=C1C(O)=C(Nc2ccc(O)c(CN3CCOCC3)c2)C(=O)c2ccccc21`, the IC50 was 0.391 µg/mL (≈ 1.03 µM) in the data set on Plasmodium falciparum [26] and 0.993 µg/mL (≈ 2.61 µM) in the data set on Plasmodium falciparum [27].

In the data set with Plasmodium falciparum [28], `O=C1C(O)=C(Cc2ccccc2)C(=O)c2ccccc21` returned a half-maximal inhibitory concentration (IC50) of 0.443 µM. The molecule further registered a CC50 with HEK293 of 54.6 µM.

`COc1cccc2c1C1=C(C(=O)C2=O)C(C)(C)C(C)O1` (stereo not given): in the data set on Plasmodium falciparum [29], it took 0.63 µM to reach half-maximal inhibition (IC50). Further, the Activity in the data set on Plasmodium berghei [30] was 80%.
